Common to all, as to experiment: [3H]glycine transport by GlyT2 mutant in COS7 cells
Common to all, as to assay type: cell-based

Assay [1] deals with T1, GlyT2 A210C mutant (Rattus norvegicus, UniProt P58295, A210C).
T1 construct: expressed in transfected cells; host or cells: COS7
T1 sequence (P58295 1-799 A210C): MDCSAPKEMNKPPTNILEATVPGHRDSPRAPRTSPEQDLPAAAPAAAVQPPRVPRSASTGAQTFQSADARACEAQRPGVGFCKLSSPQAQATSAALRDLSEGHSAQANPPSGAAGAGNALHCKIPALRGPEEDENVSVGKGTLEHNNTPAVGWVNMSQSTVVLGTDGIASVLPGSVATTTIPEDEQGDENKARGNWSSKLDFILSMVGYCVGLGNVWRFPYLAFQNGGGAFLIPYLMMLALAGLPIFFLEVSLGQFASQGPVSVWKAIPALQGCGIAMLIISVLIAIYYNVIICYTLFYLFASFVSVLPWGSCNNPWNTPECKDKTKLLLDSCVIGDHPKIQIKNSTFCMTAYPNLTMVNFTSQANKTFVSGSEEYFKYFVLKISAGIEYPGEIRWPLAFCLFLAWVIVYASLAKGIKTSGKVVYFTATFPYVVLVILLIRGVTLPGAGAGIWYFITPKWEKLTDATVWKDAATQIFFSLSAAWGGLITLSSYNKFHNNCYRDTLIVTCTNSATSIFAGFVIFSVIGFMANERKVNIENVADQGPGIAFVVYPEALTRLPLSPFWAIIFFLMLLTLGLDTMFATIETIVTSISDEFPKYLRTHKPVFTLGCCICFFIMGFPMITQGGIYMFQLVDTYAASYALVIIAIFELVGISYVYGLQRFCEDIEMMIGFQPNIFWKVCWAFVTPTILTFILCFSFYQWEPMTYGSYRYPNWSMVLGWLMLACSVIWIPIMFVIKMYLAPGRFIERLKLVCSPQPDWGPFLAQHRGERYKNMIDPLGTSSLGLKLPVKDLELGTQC
The source says: (§1) To validate the predicted interactions between the inhibitors and GlyT2, we used systematic site-directed mutagenesis to construct substitution mutants of the potential residues involved in ligand binding. […] The GlyT2 residues predicted to interact with the inhibitors through its side chain were replaced by amino acids expected to force the loss of the interaction. In the cases where the interaction occurred through the backbone, the inserted amino acid sought to alter the disposition of the substituted residue to lose the coordination.
(§2) Substitution mutants were generated with the QuikChange II Site-Directed Mutagenesis kit (Agilent Technologies, Santa Clara, CA, USA), using rGlyT2 or rGlyT1 subcloned in pCDNA3.[47] The complete coding region of all of the constructs was sequenced to verify that only the desired mutation had been introduced. […] COS7 cells were grown and transfected using Turbofect Transfection Reagent (Thermo Fisher Scientific, Waltham, MA, USA), following the manufacturer’s protocol (2 μL reagent/μg of DNA). Cells were incubated for 48 h at 37 °C until used.
(§3) At the end of the desired time (usually 10 min), reactions were washed and terminated by aspiration. […] A nonlinear curve fitting method was used to obtain IC50 values using Graphpad Prism software, version 6.0, Graphpad, San Diego, CA, USA.

Assay [2] concerns the target T2, GlyT2 S640C mutant (Rattus norvegicus, UniProt P58295, S640C).
T2 construct: expressed in transfected cells; host or cells: COS7
T2 sequence (P58295 1-799 S640C): T1 sequence (P58295 1-799 A210C) with C210A, S640C
The following applies: read-out: IC50 (Table S1).
From the text: as §1, §2, §3

Assay [3] deals with T3, GlyT2 F478Y mutant (Rattus norvegicus, UniProt P58295, F478Y).
T3 construct: expressed in transfected cells; host or cells: COS7
T3 sequence (P58295 1-799 F478Y): T1 sequence (P58295 1-799 A210C) with C210A, F478Y
From the text: as §1, §2, §3

Substitutions are numbered along the chain they refer to. Where two headings read alike, the source gives them in different places.

Drawing on publication PMC8691691 (ACS Chemical Neuroscience, 2021), this text covers IC50 for 2 compounds.

`N[C@@H](COC(c1cccc(F)c1)c1ccccc1OCc1ccccc1)C(=O)O` (stereo partly drawn) [ALX1393]: the figures for the IC50 in assay [1] (read-out: IC50 (Table S1)), in assay [2] and in assay [3] (read-out: IC50 (Table S1)) were 23 ± 3 nM, 30 ± 7 nM and 50 ± 5 nM, respectively.

`COc1cc(C(=O)NCC2(N(C)C)CCCC2)cc(OC)c1OCc1ccccc1` [ORG25543, N-[[1-(dimethylamino)cyclopentyl]methyl]-3,5-dimethoxy-4-(phenylmethoxy)benzamide]: the concentration for half-maximal inhibition (IC50) is 20 ± 12 nM in assay [1], 130 ± 6 nM in assay [2] and 19 ± 7 nM in assay [3].

A word on the IC50: it is the concentration that gives 50% inhibition.
